Assays:
[1] = molecular target: T1, Alpha-1B adrenergic receptor (Rattus norvegicus, UniProt P15823); experiment: DRUGMATRIX: Alpha-1B adrenergic receptor radioligand binding (ligand: prazosin); type: cell membranes, Wistar, Liver, Membrane; details: Not Active = under 50% inhibition at 10 µM
T1 sequence (P15823 whole entry): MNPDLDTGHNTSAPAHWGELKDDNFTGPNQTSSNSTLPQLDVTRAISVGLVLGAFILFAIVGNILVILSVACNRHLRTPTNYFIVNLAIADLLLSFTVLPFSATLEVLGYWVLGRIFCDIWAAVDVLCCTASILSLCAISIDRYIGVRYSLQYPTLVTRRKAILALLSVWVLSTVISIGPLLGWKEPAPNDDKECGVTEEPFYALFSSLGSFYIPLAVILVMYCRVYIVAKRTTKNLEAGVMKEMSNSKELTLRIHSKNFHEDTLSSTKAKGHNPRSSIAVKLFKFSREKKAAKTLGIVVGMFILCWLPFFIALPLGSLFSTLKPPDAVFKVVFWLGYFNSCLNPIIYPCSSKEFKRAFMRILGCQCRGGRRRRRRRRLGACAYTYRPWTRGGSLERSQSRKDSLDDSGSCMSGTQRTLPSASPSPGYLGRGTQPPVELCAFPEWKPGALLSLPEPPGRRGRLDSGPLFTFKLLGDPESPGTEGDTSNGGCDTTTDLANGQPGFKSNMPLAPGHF

[2] = molecular target: T2, Alpha-2C adrenergic receptor (Homo sapiens, UniProt P18825); experiment: DRUGMATRIX: Adrenergic Alpha-2C radioligand binding (ligand: [3H] MK-912); type: cell membranes, Sf9, Membrane; details: sf9
T2 sequence (P18825 whole entry): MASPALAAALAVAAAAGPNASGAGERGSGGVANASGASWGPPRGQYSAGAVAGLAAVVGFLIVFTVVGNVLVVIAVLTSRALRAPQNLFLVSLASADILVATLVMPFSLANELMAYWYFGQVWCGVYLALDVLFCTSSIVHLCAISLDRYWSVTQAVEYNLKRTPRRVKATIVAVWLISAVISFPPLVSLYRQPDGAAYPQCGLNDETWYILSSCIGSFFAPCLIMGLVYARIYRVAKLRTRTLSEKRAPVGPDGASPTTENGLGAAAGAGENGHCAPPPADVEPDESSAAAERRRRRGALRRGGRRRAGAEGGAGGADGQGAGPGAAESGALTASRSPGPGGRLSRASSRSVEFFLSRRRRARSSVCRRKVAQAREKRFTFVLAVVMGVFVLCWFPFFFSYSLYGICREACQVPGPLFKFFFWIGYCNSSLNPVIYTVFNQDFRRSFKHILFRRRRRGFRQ

Vasopressin V1a receptor = Vasopressin V1a receptor (Homo sapiens, UniProt P37288); type: cell membranes, Membrane; details: hek293; note: in other assays of this panel Not Active means under 50% inhibition at 10 µM
Vasopressin V1a receptor, sequence (P37288 whole entry): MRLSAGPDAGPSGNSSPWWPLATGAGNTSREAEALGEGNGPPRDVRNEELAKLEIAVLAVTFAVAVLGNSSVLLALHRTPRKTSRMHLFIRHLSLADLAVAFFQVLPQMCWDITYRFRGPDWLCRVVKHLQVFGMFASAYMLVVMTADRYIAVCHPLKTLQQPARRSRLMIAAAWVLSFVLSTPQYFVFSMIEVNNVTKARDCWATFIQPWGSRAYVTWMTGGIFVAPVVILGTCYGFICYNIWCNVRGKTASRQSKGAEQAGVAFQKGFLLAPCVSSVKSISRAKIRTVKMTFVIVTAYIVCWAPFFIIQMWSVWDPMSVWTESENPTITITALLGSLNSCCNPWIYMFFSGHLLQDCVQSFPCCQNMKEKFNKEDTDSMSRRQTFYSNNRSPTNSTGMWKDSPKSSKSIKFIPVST

[3] = molecular target: T3, Neuropeptide Y receptor type 2 (Homo sapiens, UniProt P49146); type: cell membranes, Membrane; details: kan-ts; note: in other assays of this panel Not Active means under 50% inhibition at 10 µM
T3 sequence (P49146 whole entry): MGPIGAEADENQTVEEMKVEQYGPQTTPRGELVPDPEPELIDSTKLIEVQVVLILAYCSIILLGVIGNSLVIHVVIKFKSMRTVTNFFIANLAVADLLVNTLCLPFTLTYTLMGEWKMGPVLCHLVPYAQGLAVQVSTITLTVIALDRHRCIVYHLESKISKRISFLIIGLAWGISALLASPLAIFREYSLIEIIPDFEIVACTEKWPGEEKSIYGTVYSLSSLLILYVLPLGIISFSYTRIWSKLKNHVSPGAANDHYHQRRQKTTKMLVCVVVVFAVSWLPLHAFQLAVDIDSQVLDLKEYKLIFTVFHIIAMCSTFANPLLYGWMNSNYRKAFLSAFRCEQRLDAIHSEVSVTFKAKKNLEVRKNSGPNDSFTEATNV

[4] = DRUGMATRIX: Phosphodiesterase PDE3 enzyme inhibition (substrate: [3H]cAMP + cAMP); type: tissue-based, Homo sapiens; details: platelet; Not Active = under 50% inhibition at 10 µM
[5] = molecular target: T4, Angiotensin-converting enzyme (Oryctolagus cuniculus, UniProt P12822); experiment: biochemical; type: tissue-based, Lung;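 note: enzymatic inhibition of angiotensin-converting enzyme measured with FAPGG as the substrate; in other assays of this panel Not Active means under 50% inhibition at 10 µM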
T4 sequence (P12822 whole entry): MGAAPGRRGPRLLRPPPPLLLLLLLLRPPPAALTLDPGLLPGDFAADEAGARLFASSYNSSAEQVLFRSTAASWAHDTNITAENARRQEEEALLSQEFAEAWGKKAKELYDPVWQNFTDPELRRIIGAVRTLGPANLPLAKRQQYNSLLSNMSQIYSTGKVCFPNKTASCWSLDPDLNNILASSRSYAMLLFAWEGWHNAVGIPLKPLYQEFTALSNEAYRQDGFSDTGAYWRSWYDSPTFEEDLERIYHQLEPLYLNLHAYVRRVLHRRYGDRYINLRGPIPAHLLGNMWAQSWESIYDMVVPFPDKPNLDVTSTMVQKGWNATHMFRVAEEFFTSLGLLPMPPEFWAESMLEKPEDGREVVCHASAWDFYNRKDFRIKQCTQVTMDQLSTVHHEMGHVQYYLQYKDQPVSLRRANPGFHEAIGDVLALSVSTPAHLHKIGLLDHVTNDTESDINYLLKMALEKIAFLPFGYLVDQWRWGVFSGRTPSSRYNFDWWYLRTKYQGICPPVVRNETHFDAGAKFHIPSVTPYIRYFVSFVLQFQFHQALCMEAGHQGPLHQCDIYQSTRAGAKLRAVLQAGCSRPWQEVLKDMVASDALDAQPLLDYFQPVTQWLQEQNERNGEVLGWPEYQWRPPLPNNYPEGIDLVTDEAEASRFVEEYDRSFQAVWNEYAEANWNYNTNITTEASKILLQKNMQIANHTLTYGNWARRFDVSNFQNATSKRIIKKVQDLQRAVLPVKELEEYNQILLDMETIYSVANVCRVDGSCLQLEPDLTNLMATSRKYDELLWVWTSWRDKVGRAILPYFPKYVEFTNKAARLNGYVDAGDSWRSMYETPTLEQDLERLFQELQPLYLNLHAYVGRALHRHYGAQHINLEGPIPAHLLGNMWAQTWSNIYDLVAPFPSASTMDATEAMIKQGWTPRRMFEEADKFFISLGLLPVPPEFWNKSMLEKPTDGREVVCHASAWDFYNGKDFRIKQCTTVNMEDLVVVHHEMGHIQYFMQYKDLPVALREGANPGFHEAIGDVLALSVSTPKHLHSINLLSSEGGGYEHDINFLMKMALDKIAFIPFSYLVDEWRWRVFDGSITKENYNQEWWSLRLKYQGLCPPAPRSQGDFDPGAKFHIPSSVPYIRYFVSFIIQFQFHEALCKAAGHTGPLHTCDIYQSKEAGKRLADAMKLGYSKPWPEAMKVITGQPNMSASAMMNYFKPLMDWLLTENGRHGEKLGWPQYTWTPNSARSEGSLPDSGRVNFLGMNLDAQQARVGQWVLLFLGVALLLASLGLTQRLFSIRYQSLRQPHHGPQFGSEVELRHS

[6] = molecular target: Protein kinase C alpha type (Homo sapiens, UniProt P17252); type: cell-based; details: sf9;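 note: inhibition of PKCalpha kinase activity measured in an enzyme assay with histone as the phosphorylation substrate; in other assays of this panel Not Active means under 50% inhibition at 10 µM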
[7] = molecular target: 5-hydroxytryptamine receptor 1B (Rattus norvegicus, UniProt P28564); type: cell membranes, Wistar, Cerebral cortex, Membrane; note: in other assays of this panel Not Active means under 50% inhibition at 10 µM
5-hydroxytryptamine receptor 1B, sequence (P28564 whole entry): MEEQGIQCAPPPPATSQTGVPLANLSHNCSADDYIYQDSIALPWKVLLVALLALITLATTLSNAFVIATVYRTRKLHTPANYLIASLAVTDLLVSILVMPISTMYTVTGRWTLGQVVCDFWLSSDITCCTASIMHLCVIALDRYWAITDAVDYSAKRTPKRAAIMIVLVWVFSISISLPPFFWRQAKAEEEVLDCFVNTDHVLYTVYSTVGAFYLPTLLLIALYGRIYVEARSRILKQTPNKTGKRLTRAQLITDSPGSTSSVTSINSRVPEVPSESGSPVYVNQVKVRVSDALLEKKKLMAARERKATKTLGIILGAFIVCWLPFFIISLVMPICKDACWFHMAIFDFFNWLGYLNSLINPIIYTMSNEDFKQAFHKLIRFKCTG

| Structure (SMILES) | IC50 [1] | IC50 [2] | IC50 (Vasopressin V1a receptor) | IC50 [3] | IC50 [4] | Ki [4] | IC50 ([5]; read-out: IC50) [nM] | IC50 [6] | IC50 [7] | IC50 [5] |
| --- | --- | --- | --- | --- | --- | --- | --- | --- | --- | --- |
| NCCCC[C@H](N[C@@H](CCc1ccccc1)C(=O)O)C(=O)N1CCC[C@H]1C(=O)O [LISINOPRIL ANHYDROUS] | Not Active | Not Active | Not Active | Not Active | Not Active | Not Active | 6.04 | Not Active | Not Active |  |
| CC(=O)S[C@@H]1CC2=CC(=O)CC[C@]2(C)[C@H]2CC[C@@]3(C)[C@@H](CC[C@@]34CCC(=O)O4)[C@H]12 [SPIRONOLACTONE] | Not Active | Not Active | Not Active | Not Active | Not Active | Not Active |  | Not Active | Not Active | Not Active |
| CN(C)[C@@H]1C(O)=C(C(N)=O)C(=O)[C@@]2(O)C(O)=C3C(=O)c4c(O)cccc4[C@@](C)(O)[C@H]3C[C@@H]12 [TETRACYCLINE] | Not Active | Not Active | Not Active | Not Active | Not Active | Not Active |  | Not Active | Not Active | Not Active |
| Nc1ccc(S(=O)(=O)Nc2ccnn2-c2ccccc2)cc1 [SULFAPHENAZOLE] | Not Active | Not Active | Not Active | Not Active | Not Active | Not Active |  | Not Active | Not Active | Not Active |
| COc1c(C)c2c(c(O)c1C/C=C(\C)CCC(=O)OCCN1CCOCC1)C(=O)OC2 [MYCOPHENOLATE MOFETIL] | Not Active | Not Active | Not Active | Not Active | Not Active | Not Active |  | Not Active | Not Active | Not Active |
| Nc1nnc(-c2cccc(Cl)c2Cl)c(N)n1 [LAMOTRIGINE] | Not Active | Not Active | Not Active | Not Active | Not Active | Not Active |  | Not Active | Not Active | Not Active |
| NC(=O)c1ccccc1O [SALICYLAMIDE] | Not Active | Not Active | Not Active | Not Active | Not Active | Not Active |  | Not Active | Not Active | Not Active |
| C=CC[C@@H]1/C=C(\C)C[C@H](C)C[C@H](OC)[C@H]2O[C@@](O)(C(=O)C(=O)N3CCCC[C@H]3C(=O)O[C@H](/C(C)=C/[C@@H]3CC[C@@H](O)[C@H](OC)C3)[C@H](C)[C@@H](O)CC1=O)[C@H](C)C[C@@H]2OC [TACROLIMUS ANHYDROUS] | Not Active | Not Active | Not Active | Not Active | Not Active | Not Active |  | Not Active | Not Active | Not Active |
| c1ccc2[nH]c(-c3cscn3)nc2c1 [THIABENDAZOLE] | Not Active | Not Active | Not Active | Not Active | Not Active | Not Active |  | Not Active | Not Active | Not Active |
| COc1ccc(C(CN(C)C)C2(O)CCCCC2)cc1 (configuration not stated) [VENLAFAXINE] | Not Active | Not Active | Not Active | Not Active | Not Active | Not Active |  | Not Active | Not Active | Not Active |
| CC(C)(C)NC(=O)[C@@H]1CN(Cc2cccnc2)CCN1C[C@@H](O)C[C@@H](Cc1ccccc1)C(=O)N[C@H]1c2ccccc2C[C@H]1O.O | Not Active | Not Active | Not Active | Not Active | Not Active | Not Active |  | Not Active | Not Active | Not Active |
| Clc1ccc(C(c2ccccc2Cl)C(Cl)Cl)cc1 (configuration not stated) [MITOTANE] | Not Active | Not Active | Not Active | Not Active | Not Active | Not Active |  | Not Active | Not Active | Not Active |
| Oc1c(I)cc(I)c2cccnc12 [IODOQUINOL] | Not Active | Not Active | Not Active | Not Active | Not Active | Not Active | 906 | Not Active | Not Active |  |
